Measurements taken from patent publication US12497365B2, “4-pyridinyl formamide compound or derivative thereof, preparation method therefor, herbicidal composition and use thereof” (Qingdao Kingagroot Chemical Compound Co., Ltd., priority 2019, dated 2025).

What was measured:
Assay in all cases: Weeding effect in post-emergence stage
Type in all cases: in vivo
Conditions in all cases: active ingredient 2000 g/ha, 3 weeks after application, fresh weight control rate
[1] = tested on: Abutilon theophrasti
Procedure, shortened: (§1)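 Seeds were covered with 0.5-2 cm soil and raised in a greenhouse for 2 weeks. At the 2-3 leaf stage, compound formulations (acetone, Tween 80, 1.5 liter/ha methyl oleate EC, water) were spray-tower applied at 2000-125 g/ha. After 3 further weeks, fresh weight control was graded.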

[2] = tested on: Amaranthus retroflexus L.
Procedure, shortened: as §1

[3] = tested on: Chenopodium album
Procedure, shortened: as §1

[4] = tested on: Descurainia sophia
Procedure, shortened: as §1

SMILES | Weeding effect, activity level (growth control rate), Abutilon theophrasti [1] | Weeding effect, activity level (growth control rate), Amaranthus retroflexus L. [2] | Weeding effect, activity level (growth control rate), Chenopodium album [3] | Weeding effect, activity level (growth control rate), Descurainia sophia [4]
Cn1nnnc1NC(=O)c1ccnc(-c2ccc(N)cc2)c1Cl [Compound 1-37] | 5 (Level 5: growth control rate is above 85%) | 5 (Level 5: growth control rate is above 85%) | 5 (Level 5: growth control rate is above 85%) | 5 (Level 5: growth control rate is above 85%)
Cn1nnnc1NC(=O)c1ccnc(-c2ccc(C(F)(F)F)cc2F)c1Cl [Compound 1-74] | 5 (Level 5: growth control rate is above 85%) | 5 (Level 5: growth control rate is above 85%) | 5 (Level 5: growth control rate is above 85%) | 5 (Level 5: growth control rate is above 85%)
CCC(OC)c1c(C(=O)Nc2nnnn2C)ccnc1-c1ccc(F)cc1 (stereo not shown) [Compound 1-216] | 5 (Level 5: growth control rate is above 85%) | 5 (Level 5: growth control rate is above 85%) | 5 (Level 5: growth control rate is above 85%) | 5 (Level 5: growth control rate is above 85%)
Cn1nnnc1NC(=O)c1ccnc(-c2ccc(CNC(=O)OC(C)(C)C)s2)c1Cl [Compound 1-2004] | 5 (Level 5: growth control rate is above 85%) | 5 (Level 5: growth control rate is above 85%) | 5 (Level 5: growth control rate is above 85%) | 5 (Level 5: growth control rate is above 85%)
Cc1nnc(NC(=O)c2ccnc(-c3ccc(F)cc3)c2Cl)n1C [Compound 1-650] | 5 (Level 5: growth control rate is above 85%) | 5 (Level 5: growth control rate is above 85%) | 5 (Level 5: growth control rate is above 85%) | 5 (Level 5: growth control rate is above 85%)
CSc1ccccc1-c1nccc(C(=O)Nc2nnnn2C)c1Cl [Compound 1-42] | 5 (Level 5: growth control rate is above 85%) | 5 (Level 5: growth control rate is above 85%) | 5 (Level 5: growth control rate is above 85%) | 5 (Level 5: growth control rate is above 85%)
Cn1nnnc1NC(=O)c1ccnc(-c2cccc(C#N)c2F)c1Cl [Compound 1-80] | 5 (Level 5: growth control rate is above 85%) | 5 (Level 5: growth control rate is above 85%) | 5 (Level 5: growth control rate is above 85%) | 5 (Level 5: growth control rate is above 85%)
Cn1nnnc1NC(=O)c1ccnc(-c2ccc(Cl)cc2C(F)(F)F)c1Cl [Compound 1-101] | 5 (Level 5: growth control rate is above 85%) | 5 (Level 5: growth control rate is above 85%) | 5 (Level 5: growth control rate is above 85%) | 5 (Level 5: growth control rate is above 85%)
Cn1nnnc1NC(=O)c1ccnc(-c2cncc(C#N)c2)c1Cl [Compound 1-133] | 5 (Level 5: growth control rate is above 85%) | 5 (Level 5: growth control rate is above 85%) | 5 (Level 5: growth control rate is above 85%) | 5 (Level 5: growth control rate is above 85%)
Cn1nnnc1NC(=O)c1ccnc(-c2ccc(C#N)nc2)c1Cl [Compound 1-134] | 5 (Level 5: growth control rate is above 85%) | 5 (Level 5: growth control rate is above 85%) | 5 (Level 5: growth control rate is above 85%) | 5 (Level 5: growth control rate is above 85%)
CCCC1CCC(c2ccc(-c3nccc(C(=O)Nc4nnnn4C)c3Cl)cc2)CC1 (stereo not shown) [Compound 1-14] | 5 (Level 5: growth control rate is above 85%) | 5 (Level 5: growth control rate is above 85%) | 5 (Level 5: growth control rate is above 85%) | 5 (Level 5: growth control rate is above 85%)
Cn1nnnc1NC(=O)c1ccnc(-c2cccc(C#N)c2)c1Cl [Compound 1-49] | 5 (Level 5: growth control rate is above 85%) | 5 (Level 5: growth control rate is above 85%) | 5 (Level 5: growth control rate is above 85%) | 5 (Level 5: growth control rate is above 85%)
CCOc1ccc(-c2nccc(C(=O)Nc3nnnn3C)c2Cl)cn1 [Compound 1-144] | 5 (Level 5: growth control rate is above 85%) | 5 (Level 5: growth control rate is above 85%) | 5 (Level 5: growth control rate is above 85%) | 5 (Level 5: growth control rate is above 85%)
Cn1nnnc1NC(=O)c1ccnc(-c2cccc(Cl)c2Cl)c1Cl [Compound 1-87] | 5 (Level 5: growth control rate is above 85%) | 5 (Level 5: growth control rate is above 85%) | 5 (Level 5: growth control rate is above 85%) | 5 (Level 5: growth control rate is above 85%)
Cn1nnnc1NC(=O)c1ccnc(-c2cnn(C(F)F)c2)c1Cl [Compound 1-174] | 5 (Level 5: growth control rate is above 85%) | 5 (Level 5: growth control rate is above 85%) | 5 (Level 5: growth control rate is above 85%) | 5 (Level 5: growth control rate is above 85%)
Cn1nccc1-c1nccc(C(=O)Nc2nnnn2C)c1Cl [Compound 1-178] | 5 (Level 5: growth control rate is above 85%) | 5 (Level 5: growth control rate is above 85%) | 5 (Level 5: growth control rate is above 85%) | 5 (Level 5: growth control rate is above 85%)
Cn1nnnc1NC(=O)c1ccnc(C2=CCOCC2)c1Cl [Compound 1-7] | 5 (Level 5: growth control rate is above 85%) | 5 (Level 5: growth control rate is above 85%) | 5 (Level 5: growth control rate is above 85%) | 5 (Level 5: growth control rate is above 85%)
Cn1nnnc1NC(=O)c1ccnc(-c2cccnc2Cl)c1Cl [Compound 1-130] | 5 (Level 5: growth control rate is above 85%) | 5 (Level 5: growth control rate is above 85%) | 5 (Level 5: growth control rate is above 85%) | 5 (Level 5: growth control rate is above 85%)
Cn1nnnc1NC(=O)c1ccnc(-c2ccc(F)cc2)c1OCC(F)(F)F [Compound 1-202] | 5 (Level 5: growth control rate is above 85%) | 5 (Level 5: growth control rate is above 85%) | 5 (Level 5: growth control rate is above 85%) | 5 (Level 5: growth control rate is above 85%)
Cn1nnnc1NC(=O)c1ccnc(-c2cc(F)c(F)c(F)c2)c1Cl [Compound 1-109] | 5 (Level 5: growth control rate is above 85%) | 5 (Level 5: growth control rate is above 85%) | 5 (Level 5: growth control rate is above 85%) | 5 (Level 5: growth control rate is above 85%)
C=CCc1c(C(=O)Nc2nnnn2C)ccnc1-c1ccc(F)cc1 [Compound 1-219] | 5 (Level 5: growth control rate is above 85%) | 5 (Level 5: growth control rate is above 85%) | 5 (Level 5: growth control rate is above 85%) | 5 (Level 5: growth control rate is above 85%)
Cn1nc(C(F)(F)F)cc1-c1nccc(C(=O)Nc2nnnn2C)c1Cl [Compound 1-180] | 5 (Level 5: growth control rate is above 85%) | 5 (Level 5: growth control rate is above 85%) | 5 (Level 5: growth control rate is above 85%) | 5 (Level 5: growth control rate is above 85%)
